Experimental data taken from ChEMBL document CHEMBL1145262, “Aryl sulfones: a new class of gamma-secretase inhibitors” (Bioorg Med Chem Lett, 2005).

These compounds were tested against Gamma-secretase (assay: In vitro inhibition of gamma-secretase as amyloid peptide production in SH-SY5Y cells).
Assay type: functional, cell-based, Homo sapiens

Row | Structure (SMILES) | IC50
1 | O=S(=O)(c1ccc(Cl)cc1)C1(c2ccccc2)CCCCC1 | 461 nM
2 | CC(C)N(c1cc(F)ccc1F)S(=O)(=O)c1ccc(Cl)cc1 | 170 nM
3 | COC(=O)C(C)C(c1cc(F)ccc1F)S(=O)(=O)c1ccc(Cl)cc1 (centres undefined) | 253 nM
4 | O=S(=O)(Nc1cc(F)ccc1F)c1ccc(Cl)cc1 | > 10000 nM
5 | CC(CO)C(c1cc(F)ccc1F)S(=O)(=O)c1ccc(Cl)cc1 (centres undefined) | 304 nM
6 | O=S(=O)(Cc1cc(F)ccc1F)c1ccc(Cl)cc1 | 4410 nM
7 | CC(c1cc(F)ccc1F)S(=O)(=O)c1ccc(Cl)cc1 (centres undefined) | 2470 nM
8 | O=S(=O)(c1ccc(Cl)cc1)C1(c2cccc(F)c2)CCCCC1 | 249 nM
9 | O=S(=O)(c1ccccc1)C1(c2cc(F)ccc2F)CCCCC1 | 98 nM
10 | CN(c1cc(F)ccc1F)S(=O)(=O)c1ccc(Cl)cc1 | 1900 nM
11 | COC(=O)C1CC(c2cc(F)ccc2F)(S(=O)(=O)c2ccc(Cl)cc2)CCC1=O (centres undefined) | 104 nM

Stronger by IC50, values ahead:

Row | IC50 | Structure (SMILES)
12 | 94 nM | O=S(=O)(c1ccc(Cl)cc1)C1(c2cc(F)ccc2F)CC2CCC(C2)C1 (stereo in doubt; 20)
13 | 70 nM | CC(C)C(c1cc(F)ccc1F)S(=O)(=O)c1ccc(Cl)cc1 (centres undefined)
14 | 55 nM | O=S(=O)(c1ccc(Cl)cc1)C1(c2ccccc2F)CCCCC1
15 | 35 nM | CC(CCO)C(c1cc(F)ccc1F)S(=O)(=O)c1ccc(Cl)cc1 (centres undefined)
16 | 27 nM | C[C@H](CO)N(c1cc(F)ccc1F)S(=O)(=O)c1ccc(Cl)cc1
17 | 22 nM | O=C1CCC(c2cc(F)ccc2F)(S(=O)(=O)c2ccc(Cl)cc2)CC1
18 | 12 nM | O=S(=O)(c1ccc(Cl)cc1)C1(c2cc(F)ccc2F)CC2CCC(C2)C1 (stereo in doubt; 19)
19 | 3 nM | O=S(=O)(c1ccc(Cl)cc1)C1(c2cc(F)ccc2F)CCCCC1
